Converted amounts (≈) assume the structure as drawn. Where two headings read alike, the source gives them in different places.
Columns and labels:
Type in all cases: cell-based
Staph.aureus ATCC6538P = test: MIC on Staph.aureus ATCC6538P; conditions: Staphylococcus aureus
Description: (§1) In Table I hereinafter is shown the minimum inhibitory concentrations (MIC) on microorganisms of the products of the present invention. As a result, the compound [1] is seen to be effective against macrolide-resistant A group microorganisms.

Staph.aureus MS353 = test: MIC on Staph.aureus MS353; conditions: Staphylococcus aureus
Description: as §1

Staph.aureus MS353A0 = test: MIC on Staph.aureus MS353A0 (macrolide-resistant A group); conditions: Staphylococcus aureus; Staph.aureus MS353A0, erythromycin, oleandomycin, 16-membered macrolide resistant clinical isolate
Description: as §1
(§2) *Erythromycin, oleandomycin, 16membered macrolide resistant strains of
(§3) clinical isolates (macrolideresistant Agroup strains)

Staph.aureus 0116 = test: MIC on Staph.aureus 0116 (macrolide-resistant A group); conditions: Staphylococcus aureus
Description: as §1, §2, §3

Staph.aureus 0119 = test: MIC on Staph.aureus 0119 (macrolide-resistant A group); conditions: Staphylococcus aureus
Description: as §1, §2, §3

Staph.aureus 0127 = test: MIC on Staph.aureus 0127 (macrolide-resistant A group); conditions: Staphylococcus aureus; Staph.aureus 0127, erythromycin, oleandomycin, 16-membered macrolide resistant clinical isolate
Description: as §1, §2, §3

Strept.pyogenes N.Y.5 = test: MIC on Strept.pyogenes N.Y.5; conditions: Streptococcus pyogenes
Description: as §1

Strept.pyogenes 1022 = test: MIC on Strept.pyogenes 1022 (macrolide-resistant A group); conditions: Streptococcus pyogenes; Strept.pyogenes 1022, erythromycin, oleandomycin, 16-membered macrolide resistant clinical isolate
Description: as §1, §2, §3

[1] = Staph.aureus 0119, erythromycin, oleandomycin, 16-membered macrolide resistant clinical isolate, read-out: MIC
[2] = Staph.aureus 0116, erythromycin, oleandomycin, 16-membered macrolide resistant clinical isolate, read-out: MIC

Row | SMILES | MIC (Staph.aureus ATCC6538P) [µg/mL] | MIC (Staph.aureus MS353) [µg/mL] | MIC (Staph.aureus MS353A0) [µg/mL] | MIC (Staph.aureus 0116; 0116) [µg/mL] | MIC (Staph.aureus 0119; [1]) [µg/mL] | MIC (Staph.aureus 0127) [µg/mL] | MIC (Strept.pyogenes N.Y.5) [µg/mL] | MIC (Strept.pyogenes 1022) [µg/mL] | MIC (Staph.aureus 0116; [2]) [µg/mL] | MIC (Staph.aureus 0119; 0119) [µg/mL]
1 | CCC1OC(=O)CC(O)C(C)C(OC2OC(C)C(OC3CC(C)(OC(C)=O)C(OC(C)=O)C(C)O3)C(N(C)C)C2O)C(CC=O)CC(C)C(=O)C=CC(C)=CC1COC1OC(C)C(O)C(OC)C1OC (stereo not drawn) [3"-Ac, 4"-Ac, 3", 4"-diacetyltylosin] | 0.8 (≈ 0.8 µM) | 1.6 (≈ 1.6 µM) | 12.5 (≈ 12.5 µM) | 12.5 (≈ 12.5 µM) | 50 (≈ 50 µM) | 100 (≈ 100 µM) | 0.2 (≈ 0.2 µM) | 6.3 (≈ 6.3 µM) | – | –
2 | CCC(=O)OC1(C)CC(OC2C(C)OC(OC3C(CC=O)CC(C)C(=O)C=CC(C)=CC(COC4OC(C)C(O)C(OC)C4OC)C(CC)OC(=O)CC(O)C3C)C(O)C2N(C)C)OC(C)C1OC(=O)CC(C)C (stereo not drawn) [3"-Pro, 4"-Iva, 4"-isovaleryl-3"-propionyltylosin] | 1.6 (≈ 1.51 µM) | 3.1 (≈ 2.93 µM) | 6.3 (≈ 5.96 µM) | – | 6.3 (≈ 5.96 µM) | 12.5 (≈ 11.8 µM) | 0.4 (≈ 0.379 µM) | 0.8 (≈ 0.757 µM) | 6.3 (≈ 5.96 µM) | –
3 | CCC1OC(=O)CC(O)C(C)C(OC2OC(C)C(OC3CC(C)(OC(=O)CC(C)C)C(OC(C)=O)C(C)O3)C(N(C)C)C2O)C(CC=O)CC(C)C(=O)C=CC(C)=CC1COC1OC(C)C(O)C(OC)C1OC (stereo not drawn) [3"-Iva, 4"-Ac, 4"-acetyl-3"-isovaleryltylosin] | 0.8 (≈ 0.768 µM) | 1.6 (≈ 1.54 µM) | 6.3 (≈ 6.04 µM) | – | 25 (≈ 24 µM) | > 100 | 0.2 (≈ 0.192 µM) | 6.3 (≈ 6.04 µM) | 6.3 (≈ 6.04 µM) | –
4 | CCC(=O)OC1C(C)OC(OC2C(C)OC(OC3C(CC=O)CC(C)C(=O)C=CC(C)=CC(COC4OC(C)C(O)C(OC)C4OC)C(CC)OC(=O)CC(O)C3C)C(O)C2N(C)C)CC1(C)OC(=O)CC (stereo not drawn) [3"-Pro, 4"-Pro, 3", 4"-dipropionyltylosin] | 1.6 (≈ 1.56 µM) | 3.1 (≈ 3.01 µM) | 25 (≈ 24.3 µM) | – | 12.5 (≈ 12.2 µM) | 25 (≈ 24.3 µM) | 0.2 (≈ 0.195 µM) | 1.6 (≈ 1.56 µM) | 6.3 (≈ 6.13 µM) | –
5 | CCCC(=O)OC1C(C)OC(OC2C(C)OC(OC3C(CC=O)CC(C)C(=O)C=CC(C)=CC(COC4OC(C)C(O)C(OC)C4OC)C(CC)OC(=O)CC(O)C3C)C(O)C2N(C)C)CC1(C)OC(=O)CCC (stereo not drawn) [3"-Bu, 4"-Bu, 3", 4"-dibutyryltylosin] | 1.6 (≈ 1.51 µM) | 6.1 (≈ 5.77 µM) | 12.5 (≈ 11.8 µM) | – | – | 25 (≈ 23.7 µM) | 0.2 (≈ 0.189 µM) | 1.6 (≈ 1.51 µM) | 6.3 (≈ 5.96 µM) | 12.5 (≈ 11.8 µM)
6 | CCC1OC(=O)CC(O)C(C)C(OC2OC(C)C(OC3CC(C)(OC(C)=O)C(OC(=O)CC(C)C)C(C)O3)C(N(C)C)C2O)C(CC=O)CC(C)C(=O)C=CC(C)=CC1COC1OC(C)C(O)C(OC)C1OC (stereo not drawn) [3"-Ac, 4"-Iva, 3"-acetyl-4"-isovaleryltylosin] | 1.6 (≈ 1.54 µM) | 3.1 (≈ 2.97 µM) | 6.3 (≈ 6.04 µM) | – | 6.3 (≈ 6.04 µM) | 12.5 (≈ 12 µM) | 0.2 (≈ 0.192 µM) | 1.6 (≈ 1.54 µM) | 6.3 (≈ 6.04 µM) | –
7 | CCCCCC(=O)OC1C(C)OC(OC2C(C)OC(OC3C(CC=O)CC(C)C(=O)C=CC(C)=CC(COC4OC(C)C(O)C(OC)C4OC)C(CC)OC(=O)CC(O)C3C)C(O)C2N(C)C)CC1(C)OC(C)=O (stereo not drawn) [3"-Ac, 4"-Hex, 3"-acetyl-4"-hexanoyltylosin] | 1.6 (≈ 1.51 µM) | 3.1 (≈ 2.93 µM) | 12.5 (≈ 11.8 µM) | – | – | 25 (≈ 23.7 µM) | 0.4 (≈ 0.379 µM) | 1.6 (≈ 1.51 µM) | 6.3 (≈ 5.96 µM) | 12.5 (≈ 11.8 µM)
8 | CCCC(=O)OC1C(C)OC(OC2C(C)OC(OC3C(CC=O)CC(C)C(=O)C=CC(C)=CC(COC4OC(C)C(O)C(OC)C4OC)C(CC)OC(=O)CC(O)C3C)C(O)C2N(C)C)CC1(C)O (stereo not drawn) [3"-H, 4"-Bu, reference compound] | 0.8 (≈ 0.811 µM) | 3.1 (≈ 3.14 µM) | 50 (≈ 50.7 µM) | – | 50 (≈ 50.7 µM) | 100 (≈ 101 µM) | 0.2 (≈ 0.203 µM) | 12.5 (≈ 12.7 µM) | 25 (≈ 25.3 µM) | –
9 | CCCC(=O)OC1C(C)OC(OC2C(C)OC(OC3C(CC=O)CC(C)C(=O)C=CC(C)=CC(COC4OC(C)C(O)C(OC)C4OC)C(CC)OC(=O)CC(O)C3C)C(O)C2N(C)C)CC1(C)OC(=O)CC (stereo not drawn) [3"-Pro, 4"-Bu, 4"-butyryl-3"-propionyltylosin] | 1.6 (≈ 1.54 µM) | 3.1 (≈ 2.97 µM) | 12.5 (≈ 12 µM) | – | – | 25 (≈ 24 µM) | 0.2 (≈ 0.192 µM) | 1.6 (≈ 1.54 µM) | 6.3 (≈ 6.04 µM) | 12.5 (≈ 12 µM)
10 | CCCC(=O)OC1C(C)OC(OC2C(C)OC(OC3C(CC=O)CC(C)C(=O)C=CC(C)=CC(COC4OC(C)C(O)C(OC)C4OC)C(CC)OC(=O)CC(O)C3C)C(O)C2N(C)C)CC1(C)OC(C)=O (stereo not drawn) [3"-Ac, 4"-Bu, 3"-acetyl-4"-butyryltylosin] | 1.6 (≈ 1.56 µM) | 3.1 (≈ 3.01 µM) | 12.5 (≈ 12.2 µM) | – | – | 25 (≈ 24.3 µM) | 0.2 (≈ 0.195 µM) | 1.6 (≈ 1.56 µM) | 6.3 (≈ 6.13 µM) | 12.5 (≈ 12.2 µM)
11 | CCC(=O)OC1C(C)OC(OC2C(C)OC(OC3C(CC=O)CC(C)C(=O)C=CC(C)=CC(COC4OC(C)C(O)C(OC)C4OC)C(CC)OC(=O)CC(O)C3C)C(O)C2N(C)C)CC1(C)OC(C)=O (stereo not drawn) [3"-Ac, 4"-Pro, 3"-acetyl-4"-propionyltylosin] | 1.6 (≈ 1.58 µM) | 3.1 (≈ 3.06 µM) | 25 (≈ 24.6 µM) | – | 12.5 (≈ 12.3 µM) | 25 (≈ 24.6 µM) | 0.2 (≈ 0.197 µM) | 1.6 (≈ 1.58 µM) | 6.3 (≈ 6.21 µM) | –
12 | CC[C@H]1OC(=O)C[C@@H](O)[C@H](C)[C@@H](O[C@@H]2O[C@H](C)[C@@H](O[C@H]3C[C@@](C)(O)[C@@H](O)[C@H](C)O3)[C@H](N(C)C)[C@H]2O)[C@@H](CC=O)C[C@@H](C)C(=O)/C=C/C(C)=C/[C@@H]1CO[C@@H]1O[C@H](C)[C@@H](O)[C@@H](OC)[C@H]1OC [3"-H, 4"-H, tylosin] | 0.8 (≈ 0.873 µM) | 1.6 (≈ 1.75 µM) | > 100 | – | > 100 | > 100 | 0.2 (≈ 0.218 µM) | > 100 | > 100 | –

Reference: US4268665A, “Derivatives of antibiotic tylosin” (Toyo Jozo Kabushiki Kaisha, priority 1978, dated 1981)
